Data on 26 molecules can be found in patent US10556900B2, “TrkA kinase inhibitors, compositions and methods thereof” (Merck Sharp & Dohme Corp., priority 2015, dated 2020).

pIC50: −log10 of the molar value.

The test deals with human TrkA receptor (Homo sapiens (Human), UniProt P04629). In words: TrkA functional activity, DiscoverX PathHunter assay (NGF-stimulated U2OS cells). Format: cell-based. Particulars: U2OS cells expressing human TrkA-Prolink, Shc1-EA and p75NTR; compound 1 h, then NGF (~80% of maximal response) 3 h; luminescence. As to the method: TrkA functional activity was measured using a DiscoverX PathHunter assay. In this assay, U2OS cells express the human TrkA receptor as a fusion with the weakly complementing fragment of B-galactosidase, which DiscoverX calls “Prolink (PK)”; additionally, Shc1 is fused with a larger fragment, which is called “Enzyme Acceptor (EA)”. Activation of the TrkA receptor, upon NGF addition, results in the kinase domain being phosphorylated, resulting in subsequent recruitment of Shc1-EA protein. That recruitment results in an active B-galactosidase enzyme that is detected by addition of a chemiluminescent substrate. The human p75^NTR protein was also expressed as a co-receptor for NGF.
Sequence of human TrkA receptor (P04629 33-796): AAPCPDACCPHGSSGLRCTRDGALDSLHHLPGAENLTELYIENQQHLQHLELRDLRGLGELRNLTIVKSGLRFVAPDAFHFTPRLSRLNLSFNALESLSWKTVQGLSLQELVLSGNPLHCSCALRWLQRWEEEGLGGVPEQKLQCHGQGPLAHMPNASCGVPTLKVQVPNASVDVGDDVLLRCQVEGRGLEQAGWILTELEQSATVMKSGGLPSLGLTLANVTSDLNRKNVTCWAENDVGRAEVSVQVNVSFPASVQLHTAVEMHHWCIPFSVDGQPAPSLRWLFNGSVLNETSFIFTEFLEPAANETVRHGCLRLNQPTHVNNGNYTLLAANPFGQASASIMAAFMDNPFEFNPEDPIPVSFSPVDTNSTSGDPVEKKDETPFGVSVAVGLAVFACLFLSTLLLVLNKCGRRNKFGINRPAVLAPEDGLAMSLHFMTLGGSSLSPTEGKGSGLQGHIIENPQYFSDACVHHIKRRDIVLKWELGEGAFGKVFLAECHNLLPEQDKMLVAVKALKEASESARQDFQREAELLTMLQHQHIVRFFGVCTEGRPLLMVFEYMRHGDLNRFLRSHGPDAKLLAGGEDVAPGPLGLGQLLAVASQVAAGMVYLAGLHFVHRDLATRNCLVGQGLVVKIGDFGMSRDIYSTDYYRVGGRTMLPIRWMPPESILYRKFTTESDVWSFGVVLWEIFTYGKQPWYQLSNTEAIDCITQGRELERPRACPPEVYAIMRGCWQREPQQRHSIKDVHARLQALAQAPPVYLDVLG
All reagents were purchased from DiscoverX, except for the receptor agonists (NGF, BDNF, NT3) which were purchased from Peprotech. Cells were expanded and frozen into cryovials, and stored in the vapor phase of liquid nitrogen, and thawed immediately before use. Thawed cells were added to a 384-well plate at 7500 cells/well, and allowed to incubate overnight. Compound at various concentrations was added the following morning and allowed to incubate on cells for 1 h. Then, NGF was added at a concentration sufficient to elicit ˜80% of a maximal response and allowed to incubate for 3 h at ambient temperature. DiscoverX PathHunter detection reagent was then added and the plate was further incubated for 1 h in the dark. The plate was then read via luminescence on the Perkin Elmer Envision.
As to `CC(O)c1cnc2c(NC(=O)c3cc(-c4ncccn4)c(C(F)(F)F)cc3F)c(-c3ccccc3)ncn12` (single isomer, unassigned) [Compound 72, (R and S)-2-Fluoro-N-(3-(1-hydroxyethyl)-7-phenylimidazo[1,2-c]pyrimidin-8-yl)-5-(pyrimidin-2-yl)-4-(trifluoromethyl)benzamide], the pIC50 (commonly −log10 of the IC50, conventionally taken in molar units) is 8.29.

In turn, `[2H]C(C)(O)c1cnc2c(NC(=O)c3cc(-c4ncccn4)c(C(F)(F)F)cc3F)c(-c3ccccc3)ccn12` (single isomer, unassigned) [Compound 74, (R and S)-2-Fluoro-N-(3-(1-hydroxyethyl-1-d)-7-phenylimidazo[1,2-a]pyridin-8-yl)-5-(pyrimidin-2-yl)-4-(trifluoromethyl)benzamide] had a pIC50 of 8.38.

In turn, `[2H]C(C)(O)c1cnc2c(NC(=O)c3cc(-c4ncccn4)c(C(F)(F)F)cc3F)c(-c3ccccc3)ccn12` (single isomer, unassigned) [Compound 75, (R and S)-2-Fluoro-N-(3-(1-hydroxyethyl-1-d)-7-phenylimidazo[1,2-a]pyridin-8-yl)-5-(pyrimidin-2-yl)-4-(trifluoromethyl)benzamide] gave a pIC50 of 8.70.

As to `Cn1ccc(-c2cc(C(=O)Nc3c(-c4ccccc4)ccc4nc(C(C)(C)O)cn34)ccc2C(F)(F)F)n1` [Compound 1, N-(2-(2-Hydroxypropan-2-yl)-6-phenylimidazo[1,2-a]pyridin-5-yl)-3-(1-methyl-1H-pyrazol-3-yl)-4-(trifluoromethyl)benzamide], the negative logarithm of the IC50 (pIC50) is 7.77.

Molecule `Cn1ccc(-c2cc(C(=O)Nc3c(-c4ccccc4)ccn4cc(C(C)(C)O)nc34)ccc2C(F)(F)F)n1` [Compound 2, N-(2-(2-Hydroxypropan-2-yl)-7-phenylimidazo[1,2-a]pyridin-8-yl)-3-(1-methyl-1H-pyrazol-3-yl)-4-(trifluoromethyl)benzamide] had a pIC50 of 6.86.

`Cn1ccc(-c2cc(C(=O)Nc3c(-c4ccccc4)ccc4nc(C(C)(C)O)sc34)ccc2C(F)(F)F)n1` [Compound 3, N-(2-(2-Hydroxypropan-2-yl)-6-phenylbenzo[d]thiazol-7-yl)-3-(1-methyl-1H-pyrazol-3-yl)-4-(trifluoromethyl)benzamide] gave a pIC50 of 6.49.

Molecule `Cn1ccc(-c2cc(C(=O)Nc3c(-c4ccccc4)ccc4sc(C(C)(C)O)nc34)ccc2C(F)(F)F)n1` [Compound 4, N-(2-(2-Hydroxypropan-2-yl)-5-phenylbenzo[d]thiazol-4-yl)-3-(1-methyl-1H-pyrazol-3-yl)-4-(trifluoromethyl)benzamide] gave a pIC50 of 7.17.

`NC(=O)c1cnc2c(NC(=O)c3cc(-c4ncccn4)c(C(F)(F)F)cc3F)c(-c3ccccc3)ccn12` [Compound 7, 8-(2-Fluoro-5-(pyrimidin-2-yl)-4-(trifluoromethyl)benzamido)-7-phenylimidazo[1,2-a]pyridine-3-carboxamide] had a pIC50 of 8.68.

Turning to `O=C(Nc1c(-c2ccccc2)ccn2c(CO)cnc12)c1cc(-c2ncccn2)c(C(F)(F)F)cc1F` [Compound 8, 2-Fluoro-N-(3-(hydroxymethyl)-7-phenylimidazo[1,2-a]pyridin-8-yl)-5-(pyrimidin-2-yl)-4-(trifluoromethyl)benzamide], the negative logarithm of the IC50 (pIC50) is 8.21.

`CC(C)(O)c1cnc2c(NC(=O)c3cc(-c4ncccn4)c(C(F)(F)F)cc3F)c(-c3ccccc3)ccn12` [Compound 11, 2-Fluoro-N-(3-(2-hydroxypropan-2-yl)-7-phenylimidazo[1,2-a]pyridin-8-yl)-5-(pyrimidin-2-yl)-4-(trifluoromethyl)benzamide] gave a negative-log IC50 (pIC50) of 8.40.

Take `Cn1ccc(-c2cc(C(=O)Nc3c(-c4ccccc4)ccn4c(C(N)=O)cnc34)ccc2C(F)(F)F)n1` [Compound 12, 8-({[3-(1-methyl-1H-pyrazol-3-yl)-4-(trifluoromethyl)phenyl]carbonyl}amino)-7-phenylimidazo[1,2-a]pyridine-3-carboxamide]: the negative logarithm of the IC50 (pIC50) was 8.24.

In turn, `Cn1ccc(-c2cc(C(=O)Nc3c(-c4ccccc4)ccn4c(CO)cnc34)ccc2C(F)(F)F)n1` [Compound 13, N-[3-(hydroxymethyl)-7-phenylimidazo[1,2-a]pyridin-8-yl]-3-(1-methyl-1H-pyrazol-3-yl)-4-(trifluoromethyl)benzamide] gave a negative logarithm of the IC50 (pIC50) of 8.62.

Consider `Cn1ccc(-c2cc(C(=O)Nc3c(-c4ccccc4)ccn4c(C(C)(C)O)cnc34)c(F)cc2C(F)(F)F)n1` [Compound 16, 2-fluoro-N-[3-(1-hydroxy-1-methylethyl)-7-phenylimidazo[1,2-a]pyridin-8-yl]-5-(1-methyl-1H-pyrazol-3-yl)-4-(trifluoromethyl)benzamide], for which the pIC50 is 9.70.

Molecule `Cn1ccc(-c2cc(C(=O)Nc3c(-c4ccccc4)ccn4c(C(C)(C)O)cnc34)c(Cl)cc2C(F)(F)F)n1` [Compound 17, 2-chloro-N-[3-(1-hydroxy-1-methylethyl)-7-phenylimidazo[1,2-a]pyridin-8-yl]-5-(1-methyl-1H-pyrazol-3-yl)-4-(trifluoromethyl)benzamide] had a pIC50 of 8.96.

For the molecule `CC(C)(O)c1cnc2c(NC(=O)c3cc(-c4ccccn4)c(C(F)(F)F)cc3Cl)c(-c3ccccc3)ccn12` [Compound 18, 2-chloro-N-[3-(1-hydroxy-1-methylethyl)-7-phenylimidazo[1,2-a]pyridin-8-yl]-5-pyridin-2-yl-4-(trifluoromethyl)benzamide], the negative logarithm of the IC50 (pIC50) was 8.17.

On to `CC(C)(O)c1cnc2c(NC(=O)c3cc(-c4ccccn4)c(C(F)(F)F)cc3F)c(-c3ccccc3)ccn12` [Compound 19, 2-fluoro-N-[3-(1-hydroxy-1-methylethyl)-7-phenylimidazo[1,2-a]pyridin-8-yl]-5-pyridin-2-yl-4-(trifluoromethyl)benzamide], for which the pIC50 is 8.72.

Molecule `CC(C)(O)c1cnc2c(NC(=O)c3cc(-c4ncccn4)c(C(F)(F)F)cc3Cl)c(-c3ccccc3)ccn12` [Compound 20, 2-chloro-N-[3-(1-hydroxy-1-methylethyl)-7-phenylimidazo[1,2-a]pyridin-8-yl]-5-pyrimidin-2-yl-4-(trifluoromethyl)benzamide] had a pIC50 of 7.80.

As to `NC(=O)c1cnc2c(NC(=O)c3cc(-c4ccccn4)c(C(F)(F)F)cc3F)c(-c3ccccc3)ccn12` [Compound 21, 8-({[2-fluoro-5-pyridin-2-yl-4-(trifluoromethyl)phenyl]carbonyl}amino)-7-phenylimidazo[1,2-a]pyridine-3-carboxamide], the pIC50 was 8.43.

In the case of `Cn1ccc(-c2cc(C(=O)Nc3c(-c4ccccc4)ccn4c(C(N)=O)cnc34)c(F)cc2C(F)(F)F)n1` [Compound 22, 8-({[2-fluoro-5-(1-methyl-1H-pyrazol-3-yl)-4-(trifluoromethyl)phenyl]carbonyl}amino)-7-phenylimidazo[1,2-a]pyridine-3-carboxamide], the pIC50 is 9.29.

`Cn1ccc(-c2cc(C(=O)Nc3c(-c4ccccc4)ccn4c(CO)cnc34)c(F)cc2C(F)(F)F)n1` [Compound 23, 2-fluoro-N-[3-(hydroxymethyl)-7-phenylimidazo[1,2-a]pyridin-8-yl]-5-(1-methyl-1H-pyrazol-3-yl)-4-(trifluoromethyl)benzamide] showed a negative-log IC50 (pIC50) of 9.28.

`O=C(Nc1c(-c2ccccc2)ccn2c(CO)cnc12)c1cc(-c2ccccn2)c(C(F)(F)F)cc1F` [Compound 24, 2-fluoro-N-[3-(hydroxymethyl)-7-phenylimidazo[1,2-a]pyridin-8-yl]-5-pyridin-2-yl-4-(trifluoromethyl)benzamide]: the negative-log IC50 (pIC50) was 8.60.

`CC(C)(O)c1cnc2c(NC(=O)c3cc(-c4cc[nH]n4)c(C(F)(F)F)cc3F)c(-c3ccccc3)ccn12` [Compound 31, 2-fluoro-N-[3-(1-hydroxy-1-methylethyl)-7-phenylimidazo[1,2-a]pyridin-8-yl]-5-(1H-pyrazol-3-yl)-4-(trifluoromethyl)benzamide] had a negative-log IC50 (pIC50) of 9.03.

In the case of `Cn1ccc(-c2cc(C(=O)Nc3c(-c4ccccc4)ccn4c(C(C)(C)O)cnc34)ccc2C(F)(F)F)n1` [Compound 32, N-[3-(1-hydroxy-1-methylethyl)-7-phenylimidazo[1,2-a]pyridin-8-yl]-3-(1-methyl-1H-pyrazol-3-yl)-4-(trifluoromethyl)benzamide], the pIC50 was 8.21.

In turn, `Cn1ccc(-c2cc(C(=O)Nc3c(-c4ccccc4)ncn4cnnc34)ccc2C(F)(F)F)n1` [Compound 33, 3-(1-methyl-1H-pyrazol-3-yl)-N-(7-phenyl[1,2,4]triazolo[4,3-c]pyrimidin-8-yl)-4-(trifluoromethyl)benzamide] gave a pIC50 of 8.20.

Take `Cn1ccc(-c2cc(C(=O)Nc3c(-c4ccccc4)ccn4ccnc34)ccc2C(F)(F)F)n1` [Compound 34, 3-(1-Methyl-1H-pyrazol-3-yl)-N-(7-phenylimidazo[1,2-a]pyridin-8-yl)-4-(trifluoromethyl)benzamide]: the pIC50 is 7.28.

`[2H]C([2H])(O)c1cnc2c(NC(=O)c3cc(-c4ncccn4)c(C(F)(F)F)cc3F)c(-c3ccccc3)ccn12` [Compound 35, 2-Fluoro-N-(3-(hydroxymethyl-d2)-7-phenylimidazo[r 12-a]pyridin-8-yl)-5-(pyrimidin-2-yl)-4-(trifluoromethyl)benzamide] showed a negative-log IC50 (pIC50) of 8.36.
